Results on 19 compounds are retold here after US20220306617A1, “SUBSTITUTED 1,3-PHENYL HETEROARYL DERIVATIVES AND THEIR USE IN THE TREATMENT OF DISEASE” (NOVARTIS AG, priority 2019, published 2022).

Structures can show the parent of a compound that is named as a salt.

The target of this experiment is T1, abc isoform of human TMEM16A channel expressed in CHO cells (Homo sapiens, UniProt Q5XXA6, DEL476-501).
T1 construct: expressed in transfected cells; host or cells: CHO cells, doxycycline-inducible expression under Blasticidin/Zeocin selection
T1 sequence (Q5XXA6 with tags, fused parts or gaps isoform Q5XXA6-5 DEL539-564): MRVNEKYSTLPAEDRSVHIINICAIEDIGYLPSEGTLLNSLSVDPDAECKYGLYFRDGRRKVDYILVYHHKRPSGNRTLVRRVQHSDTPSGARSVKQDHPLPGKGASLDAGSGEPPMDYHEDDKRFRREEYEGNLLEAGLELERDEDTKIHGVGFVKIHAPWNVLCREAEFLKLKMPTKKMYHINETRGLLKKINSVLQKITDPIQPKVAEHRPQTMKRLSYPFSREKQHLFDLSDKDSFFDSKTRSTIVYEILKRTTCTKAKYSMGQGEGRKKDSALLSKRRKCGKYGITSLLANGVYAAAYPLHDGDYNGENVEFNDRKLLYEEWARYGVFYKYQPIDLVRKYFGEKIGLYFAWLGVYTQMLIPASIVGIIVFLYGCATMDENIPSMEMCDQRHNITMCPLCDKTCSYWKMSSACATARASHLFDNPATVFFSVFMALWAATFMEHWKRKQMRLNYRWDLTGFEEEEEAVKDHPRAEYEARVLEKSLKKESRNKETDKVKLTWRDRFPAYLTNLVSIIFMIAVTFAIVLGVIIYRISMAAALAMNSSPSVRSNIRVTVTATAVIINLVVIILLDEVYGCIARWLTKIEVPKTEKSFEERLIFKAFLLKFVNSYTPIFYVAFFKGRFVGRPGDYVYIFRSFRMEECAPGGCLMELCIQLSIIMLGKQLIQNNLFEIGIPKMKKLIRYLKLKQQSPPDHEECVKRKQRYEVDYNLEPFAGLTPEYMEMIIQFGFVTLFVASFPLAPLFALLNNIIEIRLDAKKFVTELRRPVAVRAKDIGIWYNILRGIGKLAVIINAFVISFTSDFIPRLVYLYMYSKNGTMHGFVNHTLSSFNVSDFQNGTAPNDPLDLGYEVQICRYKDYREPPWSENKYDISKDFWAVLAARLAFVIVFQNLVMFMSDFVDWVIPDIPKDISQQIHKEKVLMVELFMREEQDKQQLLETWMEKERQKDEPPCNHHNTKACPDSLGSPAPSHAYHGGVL
Nature of the experiment: Automated patch clamping (QPatch) assay to measure TMEM16A activity in whole-cell. The format is cell-based. The conditions noted are these: for EC50: CHO cells expressing human TMEM16A (abc), whole-cell automated patch clamp, Hill fit, read-out: TMEM16A QPATCH assay EC50 V3 EC50; for Emax: CHO, maximum current at highest dose relative to reference potentiator at maximal concentration (upper limit) and vehicle (lower limit), read-out: TMEM16A QPATCH assay EC50 V3 Assay Window (% TMEM16A max activation). An outline of the steps: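 CHO cells with doxycycline-induced (1 μg/mL, 18-24 h) human TMEM16A abc isoform; QPatch whole-cell recording, hold −70 mV, step +70 mV 1500 ms, then −90 to +70 mV ramp. Compounds in 0.3% DMSO; EC50 by Hill fit; % max activation relative to vehicle baseline and reference potentiator maximum.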

As usually defined, the EC50 is the concentration at which the effect is half-maximal. Take `CCC(CC)NC(=O)c1cnc(-c2cccc(-c3cc(C(=O)NCC4(N5CCOCC5)CCCCC4)n[nH]3)c2)o1` [Example 3.67, 2-(3-(3-(((1-Morpholinocyclohexyl)Methyl)Carbamoyl)-1H-Pyrazol-5-Yl)Phenyl)-N-(Pentan-3-Yl)Oxazole-5-Carboxamide Trifluoroacetate]: the EC50 turned out to be 0.79 µM and the Emax was found to be 68%.
For `CCC(CC)NC(=O)c1cc(-c2cccc(-c3ncc(C(=O)NC(C)(C)CCc4ccccc4)o3)c2)[nH]n1` [Example 3.68, N-(2-Methyl-4-Phenylbutan-2-Yl)-2-(3-(3-(Pentan-3-Ylcarbamoylyl-Carbamoyl)-1H-Pyrazol-5-Yl)Phenyl)Oxazole-5-Carboxamide], in that order: 0.16 µM and 88%.
Take `CCC(CC)NC(=O)c1cc(-c2cccc(-c3ncc(C(=O)NC(C)(C)C(=O)OC(C)(C)C)o3)c2)[nH]n1` [Example 3.69, Tert-Butyl 2-Methyl-2-(2-(3-(3-(Pentan-3-Ylcarbamoyl)-1H-Pyrazol-5-Yl)Phenyl)Oxazole-5-Carboxamido)Propanoatehexafluorophosphatepropanoate Hexafluorophosphate]: the concentration for a half-maximal effect (EC50) was 0.26 µM and the Emax is 76%.
As to `CCC(CC)NC(=O)c1cc(-c2cccc(-c3ncc(C(=O)N[C@@H](C)C4CC4)o3)c2)nn1CCO` [Example 4.0, (S)-N-(1-Cyclopropylethyl)-2-(3-(1-(2-Hydroxyethyl)-5-(Pentan-3-Ylcarbamoyl)-1 H-Pyrazol-3-Yl)Phenyl)Oxazole-5-Carboxamide], the concentration giving a half-maximal response (EC50) worked out at 0.33 µM and the Emax came out at 106%.
Regarding `CCOC(=O)[C@@H](NC(=O)c1cnc(-c2cccc(-c3cc(C(=O)NC(CC)CC)n(CCO)n3)c2)o1)C(C)C` [Example 4.1, (S)-Ethyl 2-(2-(3-(1-(2-Hydroxyethyl)-5-(Pentan-3-Ylcarbamoyl)-1H-Pyrazol-3-Yl)Phenyl)Oxazole-5-Carboxamido)-3-Methylbutanoate], the half-maximal effective concentration (EC50) came to 0.027 µM and the Emax came to 81%.
For the compound `CCOC(=O)[C@@H](NC(=O)c1cnc(-c2cccc(-c3cc(C(=O)N[C@@H](C)C4CC4)n(CCO)n3)c2)o1)C(C)C` [Example 4.2, (S)-Ethyl 2-(2-(3-(5-(((S)-1-Cyclopropylethyl)Carbamoyl)-1-(2-Hydroxyethyl)-1H-Pyrazol-3-Yl)Phenyl)Oxazole-5-Carboxamido)-3-Methylbutanoate], the EC50 is 0.68 µM and the Emax worked out at 125%.
For the compound `COC(=O)[C@@H](NC(=O)c1cnc(-c2cccc(-c3cc(C(=O)NC(C4CC4)C4CC4)n(CCO)n3)c2)o1)C(C)C` [Example 4.3, (S)-Methyl 2-(2-(3-(5-((Dicyclopropylmethyl)Carbamoyl)-1-(2-Hydroxyethyl)-1H-Pyrazol-3-Yl)Phenyl)Oxazole-5-Carboxamido)-3-Methylbutanoate], the EC50 was found to be 0.09 µM and the Emax was found to be 167%.
On the same counts, the results for `CCOC(=O)[C@@H](NC(=O)c1cnc(-c2cccc(-c3cc(C(=O)NC(C4CC4)C4CC4)n(CCO)n3)c2)o1)C(C)C` [Example 4.4, (S)-Ethyl 2-(2-(3-(5-((Dicyclopropylmethyl)Carbamoyl)-1-(2-Hydroxyethyl)-1 H-Pyrazol-3-Yl)Phenyl)Oxazole-5-Carboxamido)-3-Methylbutanoate] are 0.13 µM and 172%.
For `CCOC(=O)[C@@H](NC(=O)c1cnc(-c2cccc(-c3cc(C(=O)NC(C4CC4)C4CC4)n(CCCO)n3)c2)o1)C(C)C` [Example 4.5, (S)-Ethyl 2-(2-(3-(5-((Dicyclopropylmethyl)Carbamoyl)-1-(3-Hydroxypropyl)-1 H-Pyrazol-3-Yl)Phenyl)Oxazole-5-Carboxamido)-3-Methylbutanoate], the concentration for a half-maximal effect (EC50) worked out at 0.12 µM and the Emax amounted to 154%.
Consider `CCOC(=O)[C@@H](NC(=O)c1cc(-c2cccc(-c3ncc(C(=O)NC(CC)CC)o3)c2)nn1CCO)C(C)C` [Example 5.0, (S)-ethyl 2-(1-(2-hydroxyethyl)-3-(3-(5-(pentan-3-ylcarbamoyl)oxazol-2-yl)phenyl)-1 H-pyrazole-5-carboxamido)-3-methylbutanoate], for which the EC50 worked out at 0.04 µM and the Emax worked out at 110%.
Regarding `CCC(CC)NC(=O)c1cnc(-c2cccc(-c3cc(C(=O)N[C@H](C)C4CC4)n(CCO)n3)c2)o1` [Example 5.1, (R)-2-(3-(5-((1-Cyclopropylethyl)Carbamoyl)-1-(2-Hydroxyethyl)-1H-Pyrazol-3-Yl)Phenyl)-N-(Pentan-3-Yl)Oxazole-5-Carboxamide], the concentration giving a half-maximal response (EC50) turned out to be 0.32 µM and the Emax came to 125%.
For `O=C(NC1CCCC1)c1cnc(-c2cccc(-c3cc(C(=O)NC4CCCC4)n(CCCO)n3)c2)o1` [Example 5.2, N-Cyclopentyl-2-(3-(5-(Cyclopentylcarbamoyl)-1-(3-Hydroxypropyl)-1H-Pyrazol-3-Yl)Phenyl)Oxazole-5-Carboxamide], in that order: 0.84 µM and 201%.
On the same counts, the results for `CCOC(=O)[C@@H](NC(=O)c1cnc(-c2cccc(-c3cc(C(=O)NC(CC)CC)n(CCN4CCOCC4)n3)c2)o1)C(C)C` [Example 6.0, (S)-ethyl 3-methyl-2-(2-(3-(1-(2-morpholinoethyl)-5-(pentan-3-ylcarbamoyl)-1H-pyrazol-3-yl)phenyl)oxazole-5-carboxamido)butanoate] are 0.31 µM and 90%.
For `COC(=O)[C@@H](NC(=O)c1cnc(-c2cccc(-c3cc(C(=O)NC(C4CC4)C4CC4)n(CC(O)C(F)(F)F)n3)c2)o1)C(C)C` (stereo partly drawn) [Example 6.1, (2S)-Methyl 2-(2-(3-(5-((Dicyclopropylmethyl)Carbamoyl)-1-(3,3,3-Trifluoro-2-Hydroxypropyl)-1H-Pyrazol-3-Yl)Phenyl)Oxazole-5-Carboxamido)-3-Methylbutanoate], in that order: 0.12 µM and 220%.
For `CCC(CC)NC(=O)c1cnc(-c2cccc(-c3cc(C(=O)N[C@@H](C)C4CC4)n(C)n3)c2)o1` [Example 6.2, (S)-2-(3-(5-((1-Cyclopropylethyl)Carbamoyl)-1-Methyl-1H-Pyrazol-3-Yl)Phenyl)-N-(Pentan-3-Yl)Oxazole-5-Carboxamide], the EC50 was 0.05 µM and the Emax came to 131%.
For `C[C@H](NC(=O)c1cnc(-c2cccc(-c3cc(C(=O)N[C@@H](C)C4CC4)n(CC(C)(C)O)n3)c2)o1)C1CC1` [Example 6.3, N-((S)-1-Cyclopropylethyl)-2-(3-(5-(((S)-1-Cyclopropylethyl)Carbamoyl)-1-(2-Hydroxy-2-Methylpropyl)-1H-Pyrazol-3-Yl)Phenyl)Oxazole-5-Carboxamide], in that order: 0.25 µM and 73%.
On the same counts, the results for `CCOC(=O)[C@@H](NC(=O)c1cc(-c2cccc(-c3ncc(C(=O)NC(CC)CC)o3)c2)nn1CCN1CCOCC1)C(C)C` [Example 7.0, (S)-Ethyl 3-Methyl-2-(1-(2-Morpholinoethyl)-3-(3-(5-(Pentan-3-Ylcarbamoyl)Oxazol-2-Yl)Phenyl)-1H-Pyrazole-5-Carboxamido)Butanoate] are 0.44 µM and 175%.
As for `CCC(CC)NC(=O)c1cnc(-c2cccc(-c3cc(C(=O)N[C@@H](C)C4CC4)n(CC(C)(C)O)n3)c2)o1` [Example 8.0, (S)-2-(3-(5-((1-Cyclopropylethyl)Carbamoyl)-1-(2-Hydroxy-2-Methylpropyl)-1H-Pyrazol-3-Yl)Phenyl)-N-(Pentan-3-Yl)Oxazole-5-Carboxamide], the EC50 was determined as 0.2 µM and the Emax was determined as 106%.
Turning to `C[C@H](NC(=O)c1cc(-c2cccc(-c3ncc(C(=O)N[C@H](C)C4CC4)o3)c2)nn1CC(O)C(F)(F)F)C1CC1` (stereo partly drawn) [Example 8.2, N-((R)-1-Cyclopropylethyl)-2-(3-(5-(((S)-1-Cyclopropylethyl)Carbamoyl)-1-(3,3,3-Trifluoro-2-Hydroxypropyl)-1H-Pyrazol-3-Yl)Phenyl)Oxazole-5-Carboxamide], the concentration giving a half-maximal response (EC50) stood at 0.45 µM and the Emax worked out at 119%.
